Results reported in ChEMBL document CHEMBL4308841, “Synthesis, in vitro antiproliferative activity, and kinase inhibitory effects of pyrazole-containing diarylureas and diarylamides” (Eur J Med Chem, 2018).

Tests used:
Malme-3M = assay: Growth inhibition of human MALME-3M cells assessed as cell growth at 10 uM incubated for 48 hrs by sulforhodamine B assay relative to control; format: functional; details: read-out: Activity
MCF7 = assay: Growth inhibition of human MCF7 cells assessed as cell growth at 10 uM incubated for 48 hrs by sulforhodamine B assay relative to control; format: functional; details: MCF7, 48 h, read-out: Activity
SK-MEL-28 = assay: Growth inhibition of human SK-MEL-28 cells assessed as cell growth at 10 uM incubated for 48 hrs by sulforhodamine B assay relative to control; format: functional; details: SK-MEL-28, 48 h, read-out: Activity
DU-145 = assay: Growth inhibition of human DU145 cells assessed as cell growth at 100 uM incubated for 48 hrs by sulforhodamine B assay relative to control; format: functional; details: DU-145, 48 h, read-out: Activity
SN12C = assay: Growth inhibition of human SN12C cells assessed as cell growth at 10 uM incubated for 48 hrs by sulforhodamine B assay relative to control; format: functional; details: read-out: Activity
786-0 = assay: Growth inhibition of human 786-0 cells assessed as cell growth at 10 uM incubated for 48 hrs by sulforhodamine B assay relative to control; format: functional; details: 786-0, 48 h, read-out: Activity
U-251 = assay: Growth inhibition of human U251 cells assessed as cell growth at 0.1 uM incubated for 48 hrs by sulforhodamine B assay relative to control; format: functional; details: U-251, 48 h, read-out: Activity
KM12 = assay: Growth inhibition of human KM12 cells assessed as cell growth at 10 uM incubated for 48 hrs by sulforhodamine B assay relative to control; format: functional; details: KM12, 48 h, read-out: Activity
SF-268 = assay: Growth inhibition of human SF268 cells assessed as cell growth at 10 uM incubated for 48 hrs by sulforhodamine B assay relative to control; format: functional; details: SF-268, 48 h, read-out: Activity
SW-620 = assay: Growth inhibition of human SW620 cells assessed as cell growth at 10 uM incubated for 48 hrs by sulforhodamine B assay relative to control; format: functional; details: SW-620, 48 h, read-out: Activity
Hs-578T [1] = assay: Growth inhibition of human Hs578T cells assessed as cell growth at 10 uM incubated for 48 hrs by sulforhodamine B assay relative to control; format: functional; details: read-out: Activity
SNB-19 [2] = assay: Growth inhibition of human SNB19 cells assessed as cell growth at 1 uM incubated for 48 hrs by sulforhodamine B assay relative to control; format: functional; details: SNB-19, 48 h, read-out: Activity
ACHN = assay: Growth inhibition of human ACHN cells assessed as cell growth at 10 uM incubated for 48 hrs by sulforhodamine B assay relative to control; format: functional; details: read-out: Activity
A549 = assay: Growth inhibition of human A549/ATCC cells assessed as cell growth at 10 uM incubated for 48 hrs by sulforhodamine B assay relative to control; format: functional; details: A549, 48 h, read-out: Activity
LOX IMVI = assay: Growth inhibition of human LOXIMVI cells incubated for 48 hrs by sulforhodamine B assay; format: functional
SF-539 [3] = assay: Growth inhibition of human SF539 cells assessed as cell growth at 1 uM incubated for 48 hrs by sulforhodamine B assay relative to control; format: functional; details: SF-539, 48 h, read-out: Activity
RXF 393 = assay: Growth inhibition of human RXF393 cells assessed as cell growth at 10 uM incubated for 48 hrs by sulforhodamine B assay relative to control; format: functional; details: RXF 393, 48 h, read-out: Activity
HOP-62 = assay: Growth inhibition of human HOP62 cells incubated for 48 hrs by sulforhodamine B assay; format: functional, cell-based; details: HOP-62, 48 h
SF-539 [4] = assay: Growth inhibition of human SF539 cells assessed as cell growth at 0.01 uM incubated for 48 hrs by sulforhodamine B assay relative to control; format: functional; details: SF-539, 48 h, read-out: Activity
NCI-H23 = assay: Growth inhibition of human NCI-H23 cells assessed as cell growth at 10 uM incubated for 48 hrs by sulforhodamine B assay relative to control; format: functional; details: NCI-H23, 48 h, read-out: Activity
A498 = assay: Growth inhibition of human A498 cells assessed as cell growth at 10 uM incubated for 48 hrs by sulforhodamine B assay relative to control; format: functional; details: A498, 48 h, read-out: Activity
HL-60(TB) = assay: Growth inhibition of human HL-60(TB) cells assessed as cell growth at 10 uM incubated for 48 hrs by sulforhodamine B assay relative to control; format: functional; details: HL-60, 48 h, read-out: Activity
OVCAR-3 = assay: Growth inhibition of human OVCAR3 cells assessed as cell growth at 10 uM incubated for 48 hrs by sulforhodamine B assay relative to control; format: functional; details: OVCAR-3, 48 h, read-out: Activity
BT-549 = assay: Growth inhibition of human BT549 cells assessed as cell growth at 10 uM incubated for 48 hrs by sulforhodamine B assay relative to control; format: functional; details: BT-549, 48 h, read-out: Activity
M14 = assay: Growth inhibition of human M14 cells assessed as cell growth at 10 uM incubated for 48 hrs by sulforhodamine B assay relative to control; format: functional; details: M14, 48 h, read-out: Activity
RPMI-8226 = assay: Growth inhibition of human RPMI8226 cells incubated for 48 hrs by sulforhodamine B assay; format: functional, cell-based; details: RPMI-8226, 48 h
COLO 205 = assay: Growth inhibition of human COLO205 cells assessed as cell growth at 10 uM incubated for 48 hrs by sulforhodamine B assay relative to control; format: functional; details: COLO 205, 48 h, read-out: Activity
SNB-19 [5] = assay: Growth inhibition of human SNB19 cells assessed as cell growth at 10 uM incubated for 48 hrs by sulforhodamine B assay relative to control; format: functional; details: SNB-19, 48 h, read-out: Activity
PC-3 = assay: Growth inhibition of human PC3 cells assessed as cell growth at 10 uM incubated for 48 hrs by sulforhodamine B assay relative to control; format: functional; details: PC-3, 48 h, read-out: Activity
NCI/ADR-RES = assay: Growth inhibition of human NCI/ADR-RES cells assessed as cell growth at 10 uM incubated for 48 hrs by sulforhodamine B assay relative to control; format: functional; details: read-out: Activity
Hs-578T [6] = assay: Growth inhibition of human Hs578T cells assessed as cell growth at 100 uM incubated for 48 hrs by sulforhodamine B assay relative to control; format: functional; details: read-out: Activity
MDA-MB-435 = assay: Growth inhibition of human MDA-MB-435 cells assessed as cell growth at 0.1 uM incubated for 48 hrs by sulforhodamine B assay relative to control; format: functional; details: MDA-MB-435, 48 h, read-out: Activity
[7] = read-out: LC50 (the source's name)
[8] = read-out: pLC50 (the source's name) (converted)

COc1cc(Cl)cc(-c2nn(-c3cccc(NC(=O)c4ccc(N5CCOCC5)c(C(F)(F)F)c4)c3)cc2-c2ccncc2)c1
growth at 10 µM (Malme-3M): 57.9%
growth at 10 µM (MCF7): 45.3%
growth at 10 µM (SK-MEL-28): 53.2%
growth at 100 µM (DU-145): 54%
growth at 10 µM (SN12C): 79.8%
growth at 10 µM (786-0): 43.1%
growth at 0.1 µM (U-251): 95%
growth at 10 µM (KM12): 38.4%
growth at 10 µM (SF-268): 67.3%
growth at 10 µM (SW-620): 69.2%
growth at 10 µM (Hs-578T [1]): 40.7%
growth at 1 µM (SNB-19 [2]): 92%
growth at 10 µM (ACHN): 50.1%
growth at 10 µM (A549): 45.5%
GI50 (LOX IMVI; read-out: GI50): 1.58 µM
CC50 (LOX IMVI; [7]): > 100 µM
TGI (LOX IMVI; read-out: TGI): > 100 µM
GI50 (LOX IMVI; read-out: pGI50 (converted)): 15.8 µM
CC50 (LOX IMVI; [8]): > 100 µM
TGI (LOX IMVI; read-out: pTGI (converted)): > 100 µM
growth at 1 µM (SF-539 [3]): 57%
growth at 10 µM (RXF 393): 12.4%
GI50 (HOP-62; read-out: GI50): 6.78 µM
CC50 (HOP-62; [7]): > 100 µM
TGI (HOP-62; read-out: TGI): > 100 µM
GI50 (HOP-62; read-out: pGI50 (converted)): 63.1 µM
CC50 (HOP-62; [8]): > 100 µM
TGI (HOP-62; read-out: pTGI (converted)): > 100 µM
growth at 0.01 µM (SF-539 [4]): 99%
growth at 10 µM (NCI-H23): 79%
growth at 10 µM (A498): 31.4%
growth at 10 µM (HL-60(TB)): 2.73%
growth at 10 µM (OVCAR-3): 69.4%
growth at 10 µM (BT-549): 73%
growth at 10 µM (M14): 56.7%
IC50 (RPMI-8226): 1.5 µM
GI50 (RPMI-8226; read-out: GI50): 1.5 µM
CC50 (RPMI-8226; [7]): > 100 µM
TGI (RPMI-8226; read-out: TGI): > 100 µM
GI50 (RPMI-8226; read-out: pGI50 (converted)): 1.51 µM
CC50 (RPMI-8226; [8]): > 100 µM
TGI (RPMI-8226; read-out: pTGI (converted)): > 100 µM
growth at 10 µM (COLO 205): 52.7%
growth at 10 µM (SNB-19 [5]): 75.5%
growth at 10 µM (PC-3): 29.1%
growth at 10 µM (NCI/ADR-RES): 46.1%
growth at 100 µM (Hs-578T [6]): 42%
growth at 0.1 µM (MDA-MB-435): 98%
